# Results reported in the supplement of paper PMC10307832.
# What was measured:
# Assay in all cases: relative viability (nuclei count vs DMSO), 5 days (fraction); higher = more cells survive
# NCI-H2347 = tested on: NCI-H2347
# In short: (§1)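 The day after seeding in 1536-well plates, lung cancer cell lines were treated by pin tool with a single drug, or with a fixed anchor-drug dose together with five library-drug doses (not always all listed) in √10 steps. After 5 days, a combined fix-and-stain solution (final 0.05% Triton X-100, 1% formaldehyde, 1 ug/ml Hoechst) was added. Nuclei counted on 4× images gave relative viability as treated counts over vehicle counts, reported as the median of duplicate plates.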
# LCLC-103H = tested on: LCLC-103H
# In short: as §1
# NCI-H727 = tested on: NCI-H727
# In short: as §1
# NCI-H2170 = tested on: NCI-H2170
# In short: as §1
# NCI-H520 = tested on: NCI-H520
# In short: as §1
# NCI-H661 = tested on: NCI-H661
# In short: as §1
# NCI-H650 = tested on: NCI-H650
# In short: as §1
# NCI-H3122 = tested on: NCI-H3122
# In short: as §1
# RERF-LC-KJ = tested on: RERF-LC-KJ
# In short: as §1
# NCI-H1755 = tested on: NCI-H1755
# In short: as §1
# SK-MES-1 = tested on: SK-MES-1
# In short: as §1
# NCI-H522 = tested on: NCI-H522
# In short: as §1
# PC-14 = tested on: PC-14
# In short: as §1
# NCI-H1792 = tested on: NCI-H1792
# In short: as §1
# NCI-H1915 = tested on: NCI-H1915
# In short: as §1
# NCI-H1651 = tested on: NCI-H1651
# In short: as §1
# NCI-H460 = tested on: NCI-H460
# In short: as §1
# NCI-H596 = tested on: NCI-H596
# In short: as §1
# NCI-H322M = tested on: NCI-H322M
# In short: as §1
# LXF-289 = tested on: LXF-289
# In short: as §1
# SW 900 = tested on: SW 900
# In short: as §1
# NCI-H1355 = tested on: NCI-H1355
# In short: as §1
# NCI-H441 = tested on: NCI-H441
# In short: as §1
smiles,measurement,setting,value
Clc1ccc(Nc2nnc(Cc3ccncc3)c3ccccc23)cc1 [Vatalanib] + CC(=O)Nc1cccc(-n2c(=O)n(C3CC3)c(=O)c3c(Nc4ccc(I)cc4F)n(C)c(=O)c(C)c32)c1 [Trametinib] (partner 0.02 µM),relative viability,NCI-H2347; first compound 0.04 µM,0.278
same,relative viability,NCI-H2347; first compound 0.1265 µM,0.277
same,relative viability,NCI-H2347; first compound 0.4 µM,0.279
same,relative viability,NCI-H2347; first compound 1.265 µM,0.266
same,relative viability,NCI-H2347; first compound 4 µM,0.309
same,relative viability,LCLC-103H; first compound 0.04 µM,0.663
same,relative viability,LCLC-103H; first compound 0.1265 µM,0.663
same,relative viability,LCLC-103H; first compound 0.4 µM,0.684
same,relative viability,LCLC-103H; first compound 1.265 µM,0.653
same,relative viability,LCLC-103H; first compound 4 µM,0.669
same,relative viability,NCI-H727; first compound 0.1265 µM,0.413
same,relative viability,NCI-H727; first compound 0.4 µM,0.377
same,relative viability,NCI-H727; first compound 1.265 µM,0.37
same,relative viability,NCI-H727; first compound 4 µM,0.394
same,relative viability,NCI-H2170; first compound 0.04 µM,0.926
same,relative viability,NCI-H2170; first compound 0.1265 µM,0.857
same,relative viability,NCI-H2170; first compound 0.4 µM,0.856
same,relative viability,NCI-H2170; first compound 1.265 µM,0.892
same,relative viability,NCI-H2170; first compound 4 µM,0.899
same,relative viability,NCI-H520; first compound 0.04 µM,0.794
same,relative viability,NCI-H520; first compound 0.1265 µM,0.654
same,relative viability,NCI-H520; first compound 0.4 µM,0.766
same,relative viability,NCI-H520; first compound 1.265 µM,0.615
same,relative viability,NCI-H520; first compound 4 µM,0.602
same,relative viability,NCI-H661; first compound 0.04 µM,0.636
same,relative viability,NCI-H661; first compound 0.1265 µM,0.533
same,relative viability,NCI-H661; first compound 0.4 µM,0.689
same,relative viability,NCI-H661; first compound 1.265 µM,0.59
same,relative viability,NCI-H661; first compound 4 µM,0.574
same,relative viability,NCI-H650; first compound 0.04 µM,0.941
same,relative viability,NCI-H650; first compound 0.1265 µM,0.796
same,relative viability,NCI-H650; first compound 0.4 µM,0.997
same,relative viability,NCI-H650; first compound 1.265 µM,0.924
same,relative viability,NCI-H650; first compound 4 µM,0.904
same,relative viability,NCI-H3122; first compound 0.04 µM,0.239
same,relative viability,NCI-H3122; first compound 0.1265 µM,0.229
same,relative viability,NCI-H3122; first compound 0.4 µM,0.238
same,relative viability,NCI-H3122; first compound 1.265 µM,0.244
same,relative viability,NCI-H3122; first compound 4 µM,0.212
same,relative viability,RERF-LC-KJ; first compound 0.04 µM,0.931
same,relative viability,RERF-LC-KJ; first compound 0.1265 µM,0.867
same,relative viability,RERF-LC-KJ; first compound 0.4 µM,0.903
same,relative viability,RERF-LC-KJ; first compound 1.265 µM,0.791
same,relative viability,RERF-LC-KJ; first compound 4 µM,0.782
same,relative viability,NCI-H1755; first compound 0.04 µM,0.734
same,relative viability,NCI-H1755; first compound 0.1265 µM,0.812
same,relative viability,NCI-H1755; first compound 0.4 µM,0.753
same,relative viability,NCI-H1755; first compound 1.265 µM,0.788
same,relative viability,NCI-H1755; first compound 4 µM,0.717
same,relative viability,SK-MES-1; first compound 0.04 µM,0.507
same,relative viability,SK-MES-1; first compound 0.1265 µM,0.503
same,relative viability,SK-MES-1; first compound 0.4 µM,0.573
same,relative viability,SK-MES-1; first compound 1.265 µM,0.548
same,relative viability,SK-MES-1; first compound 4 µM,0.507
same,relative viability,NCI-H522; first compound 0.04 µM,0.73
same,relative viability,NCI-H522; first compound 0.1265 µM,0.714
same,relative viability,NCI-H522; first compound 0.4 µM,0.714
same,relative viability,NCI-H522; first compound 1.265 µM,0.754
same,relative viability,NCI-H522; first compound 4 µM,0.882
same,relative viability,PC-14; first compound 0.04 µM,0.671
same,relative viability,PC-14; first compound 0.1265 µM,0.826
same,relative viability,PC-14; first compound 0.4 µM,0.991
same,relative viability,PC-14; first compound 1.265 µM,0.738
same,relative viability,PC-14; first compound 4 µM,0.6
same,relative viability,NCI-H1792; first compound 0.04 µM,0.528
same,relative viability,NCI-H1792; first compound 0.1265 µM,0.395
same,relative viability,NCI-H1792; first compound 0.4 µM,0.394
same,relative viability,NCI-H1792; first compound 1.265 µM,0.399
same,relative viability,NCI-H1792; first compound 4 µM,0.456
same,relative viability,NCI-H1915; first compound 0.04 µM,0.32
same,relative viability,NCI-H1915; first compound 0.1265 µM,0.34
same,relative viability,NCI-H1915; first compound 0.4 µM,0.323
same,relative viability,NCI-H1915; first compound 1.265 µM,0.298
same,relative viability,NCI-H1915; first compound 4 µM,0.295
same,relative viability,NCI-H1651; first compound 0.04 µM,0.802
same,relative viability,NCI-H1651; first compound 0.1265 µM,0.778
same,relative viability,NCI-H1651; first compound 0.4 µM,0.779
same,relative viability,NCI-H1651; first compound 1.265 µM,0.742
same,relative viability,NCI-H1651; first compound 4 µM,0.809
same,relative viability,NCI-H460; first compound 0.04 µM,0.178
same,relative viability,NCI-H460; first compound 0.1265 µM,0.11
same,relative viability,NCI-H460; first compound 0.4 µM,0.201
same,relative viability,NCI-H460; first compound 1.265 µM,0.135
same,relative viability,NCI-H460; first compound 4 µM,0.0924
same,relative viability,NCI-H596; first compound 0.04 µM,0.782
same,relative viability,NCI-H596; first compound 0.1265 µM,0.88
same,relative viability,NCI-H596; first compound 0.4 µM,0.76
same,relative viability,NCI-H596; first compound 1.265 µM,0.751
same,relative viability,NCI-H596; first compound 4 µM,0.75
same,relative viability,NCI-H322M; first compound 0.04 µM,0.416
same,relative viability,NCI-H322M; first compound 0.1265 µM,0.51
same,relative viability,NCI-H322M; first compound 0.4 µM,0.552
same,relative viability,NCI-H322M; first compound 4 µM,0.517
same,relative viability,LXF-289; first compound 0.04 µM,0.688
same,relative viability,LXF-289; first compound 0.1265 µM,0.647
same,relative viability,LXF-289; first compound 0.4 µM,0.686
same,relative viability,LXF-289; first compound 1.265 µM,0.668
same,relative viability,LXF-289; first compound 4 µM,0.626
same,relative viability,SW 900; first compound 0.04 µM,0.768
same,relative viability,SW 900; first compound 0.1265 µM,0.696
same,relative viability,SW 900; first compound 0.4 µM,0.558
same,relative viability,SW 900; first compound 1.265 µM,0.877
same,relative viability,SW 900; first compound 4 µM,0.714
same,relative viability,NCI-H1355; first compound 0.04 µM,0.443
same,relative viability,NCI-H1355; first compound 0.1265 µM,0.383
same,relative viability,NCI-H1355; first compound 0.4 µM,0.461
same,relative viability,NCI-H1355; first compound 1.265 µM,0.404
same,relative viability,NCI-H1355; first compound 4 µM,0.428
same,relative viability,NCI-H441; first compound 0.04 µM,0.435
same,relative viability,NCI-H441; first compound 0.1265 µM,0.366
same,relative viability,NCI-H441; first compound 0.4 µM,0.476
same,relative viability,NCI-H441; first compound 1.265 µM,0.411
same,relative viability,NCI-H441; first compound 4 µM,0.421
